Test systems include HCT-116; HCT-15; MCF7; HOP-92; RPMI-8226; UACC-62; SK-MEL-2; OVCAR-3; U-251; HT-29; OVCAR-4; 786-0; K562; MDA-MB-231; HL-60; Hs-578T; Malme-3M; MDA-N.
What all share (test): growth of human tumour cells (NCI), 48 h

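Briefly, cells in 96-well plates were exposed to five compound concentrations for 48 h, and endpoints were estimated by linear interpolation. GI50 = concentration required for 50% inhibition of growth.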 Activity calls are given as the source filed them. No stated cut-off is given here; in the data, active = GI50 up to about 1.1 µM and inactive = higher.

As to `N#CC(c1ccc(O)cc1)N1CCN(C(C#N)c2ccc(O)cc2)CC1` (stereo unspecified), the GI50 was > 100 µM (inactive) in the test with HCT-116; 97.3 µM in the test with HCT-15; > 100 µM (inactive) with MCF7; 23.3 µM (inactive) in the test on HOP-92; > 100 µM (inactive) with RPMI-8226; 64.1 µM (inactive) with UACC-62. Moreover, the GI50 in the test with SK-MEL-2 was 68.2 µM (inactive); with OVCAR-3 it was > 100 µM (inactive); in the test on U-251 it was 22.3 µM (inactive); in the test with HT-29, > 100 µM (inactive); in the test with OVCAR-4 it was > 100 µM (inactive); with 786-0, > 64.1 µM (inactive). In addition, the GI50 in the test with K562 is > 100 µM (inactive); with MDA-MB-231, 21.9 µM (inactive); in the test with HL-60, > 100 µM (inactive); with Hs-578T, 27.7 µM (inactive); with Malme-3M it was > 100 µM (inactive).

Take `O=S(=O)(c1ccccc1)n1c2ccc(Br)cc2c2nc3ccccc3nc21`: the GI50 with HCT-116 was > 100 µM (inactive); in the test with HCT-15 it was over 100 µM; with HOP-92 it was > 100 µM (inactive); in the test with RPMI-8226 it was > 100 µM (inactive); in the test on UACC-62, > 100 µM (inactive); with MDA-N, > 100 µM (inactive). The GI50 with SK-MEL-2, in the test with OVCAR-3, in the test with U-251, in the test on HT-29, with OVCAR-4 and in the test on 786-0 was > 100 µM (inactive) each time. For the same compound, the GI50 in the test with K562, in the test on MDA-MB-231, in the test on Hs-578T and with Malme-3M was > 100 µM (inactive) each time.

Regarding `CC1(C)CC[C@]2(C(=O)O)CC[C@]3(C)[C@H](C(=O)C=C4[C@@]5(C)C=C(C#N)C(=O)C(C)(C)[C@@H]5CC[C@]43C)[C@@H]2C1` [BARDOXOLONE], the GI50 with HCT-116 was 0.294 µM (active); in the test on HCT-15, 0.113 µM; in the test with MCF7, 0.265 µM (active); in the test on HOP-92, 1.29 µM (inactive); with RPMI-8226, 0.0214 µM (active); with UACC-62 it was 0.2 µM (active). The GI50 with SK-MEL-2 was 1 µM (active); in the test with OVCAR-3 it was 0.102 µM (active); with U-251, 0.274 µM (active); in the test on HT-29, 0.495 µM (active); in the test on OVCAR-4 it was 1.03 µM (active); in the test with 786-0, 0.16 µM (active). Further, the GI50 with K562 is 0.263 µM (active); with MDA-MB-231 it was 1.31 µM (inactive); in the test with HL-60, 0.205 µM (active); with Hs-578T, 0.671 µM (active); in the test on Malme-3M it was 0.224 µM (active).

With `CN(CCN(C)C(=S)NN)C(=S)NN`, the GI50 in the test with HCT-116, with RPMI-8226, in the test with UACC-62, in the test with MDA-N, with SK-MEL-2 and in the test with OVCAR-3 was > 100 µM (inactive) each time. The GI50 in the test with U-251, in the test with HT-29, in the test on OVCAR-4, with 786-0, in the test on MDA-MB-231 and with HL-60 was > 100 µM (inactive) throughout. Also, the GI50 with Hs-578T and with Malme-3M was > 100 µM (inactive) throughout.

Consider `CC(=O)Oc1c2oc3cc(O)c(O)cc3c2c(OC(C)=O)c2oc3cc(O)c(O)cc3c12` [POLYOZELLIN], for which the GI50 was 18.7 µM (inactive) in the test with HCT-116; 25.2 µM in the test on HCT-15; > 10 µM (inactive) with RPMI-8226; 16.6 µM (inactive) with UACC-62; 23.6 µM (inactive) in the test with MDA-N; 20.5 µM (inactive) in the test with SK-MEL-2. Moreover, the GI50 was > 10 µM (inactive) with OVCAR-3; 1.56 µM (inactive) in the test on U-251; 26.4 µM (inactive) with HT-29; 19.8 µM (inactive) in the test with OVCAR-4; 25.2 µM (inactive) in the test with 786-0; 19.1 µM (inactive) with K562. Further, the GI50 with HL-60 was 3.08 µM (inactive); in the test on Hs-578T, 12.2 µM (inactive); in the test with Malme-3M it was 17.1 µM (inactive).

Turning to `CCOC(=O)/C1=C(\C)N(c2ccc(C)cc2)C(=O)c2ccccc2C(=O)c2c(O)ccc(O)c21`, the GI50 in the test with HCT-116 was 19.5 µM (inactive); with HCT-15 it was 14.4 µM; with MCF7, 15.2 µM (inactive); in the test with HOP-92 it was 22.7 µM (inactive); in the test with RPMI-8226, 11.7 µM (inactive); in the test with UACC-62 it was 28 µM (inactive). Besides, the GI50 in the test on SK-MEL-2 was 28.8 µM (inactive); in the test with OVCAR-3 it was 17.8 µM (inactive); in the test with U-251 it was 22.4 µM (inactive); in the test with HT-29 it was 19.5 µM (inactive); in the test on OVCAR-4 it was 3.66 µM (inactive); in the test on 786-0, 18.2 µM (inactive). In addition, the GI50 is 20.6 µM (inactive) with K562; 14.1 µM (inactive) in the test on MDA-MB-231; 19.1 µM (inactive) in the test on HL-60; 29.2 µM (inactive) in the test on Hs-578T; 18.1 µM (inactive) in the test with Malme-3M.

As to `COc1ccc(C2c3cc4c(cc3OC(N3CCOCC3)C2C)OCO4)c(OC)c1OC` (stereo unspecified), the GI50 in the test with HCT-116 was 10.3 µM (inactive); with HCT-15, 6.93 µM; in the test on MCF7, 10.9 µM (inactive); in the test with RPMI-8226, 13.2 µM (inactive); in the test with UACC-62, 13.5 µM (inactive); in the test on MDA-N, 2.45 µM (inactive). The GI50 in the test with SK-MEL-2 is 12.2 µM (inactive); with OVCAR-3 it was 11 µM (inactive); in the test with HT-29 it was 14 µM (inactive); in the test on 786-0 it was 17.1 µM (inactive); in the test on K562 it was 4.34 µM (inactive); in the test with Hs-578T, 2.88 µM (inactive).

With `Cc1nc(Nc2ccc(Cl)c(Cl)c2)sc1C(=O)/C=C/c1ccc2c(c1)OCO2`, the GI50 in the test on HCT-116 was 20.6 µM (inactive); in the test with MCF7, 25.1 µM (inactive); with RPMI-8226, 17.1 µM (inactive); in the test with UACC-62, 37.6 µM (inactive); in the test on OVCAR-3, 10.4 µM (inactive); in the test with U-251, 22 µM (inactive). The GI50 with HT-29 is 36.8 µM (inactive); in the test on OVCAR-4, 17.8 µM (inactive); in the test with 786-0, 20.2 µM (inactive); in the test with K562, 31.6 µM (inactive); in the test with HL-60, 18.9 µM (inactive); in the test with Malme-3M, 31.9 µM (inactive).

Regarding `O=S(=O)(O)c1ccc2c(/N=N/c3ccccc3Cl)c(O)ccc2c1`, the GI50 with HCT-116 is > 100 µM (inactive); in the test on HCT-15 it was over 100 µM; in the test on HOP-92, > 100 µM (inactive); with RPMI-8226 it was > 100 µM (inactive); with UACC-62 it was > 100 µM (inactive); in the test with MDA-N, > 100 µM (inactive). Moreover, the GI50 with SK-MEL-2, in the test with OVCAR-3, with U-251, in the test on HT-29, in the test on OVCAR-4 and in the test on 786-0 was > 100 µM (inactive) throughout. Further, the GI50 in the test on K562, in the test with MDA-MB-231, in the test on Hs-578T and with Malme-3M was > 100 µM (inactive) throughout.

On to `C=C(CBr)CCCOCc1ccccc1`, for which the GI50 in the test with HCT-116 is 41.6 µM (inactive); with HCT-15, 22 µM; in the test on MCF7, 30.5 µM (inactive); in the test with HOP-92 it was 21.6 µM (inactive); in the test with RPMI-8226, 29.7 µM (inactive); with UACC-62 it was 18.7 µM (inactive). For the same compound, the GI50 is > 10 µM (inactive) in the test with MDA-N; 18.6 µM (inactive) in the test with SK-MEL-2; 19.1 µM (inactive) in the test on OVCAR-3; 34.7 µM (inactive) in the test with U-251; 21.2 µM (inactive) in the test with HT-29; 17.6 µM (inactive) with OVCAR-4. Besides, the GI50 in the test on 786-0 was 36.6 µM (inactive); with K562 it was 40.3 µM (inactive); with MDA-MB-231 it was > 10 µM (inactive); in the test with HL-60 it was 23.5 µM (inactive); with Malme-3M, 20.7 µM (inactive).

Take `COc1cc(OC)c(OC)cc1/C=C/c1cc[n+](C)c2ccccc12`: the GI50 in the test on HCT-116 is 27.8 µM (inactive); with HCT-15, over 100 µM; with MCF7, 49.2 µM (inactive); in the test on HOP-92 it was 23.9 µM (inactive); in the test with RPMI-8226 it was 21.2 µM (inactive); in the test with MDA-N it was 24.3 µM (inactive). The GI50 in the test on U-251 was 5.02 µM (inactive); in the test with HT-29, 30.5 µM (inactive); in the test with OVCAR-4 it was 46.9 µM (inactive); in the test with 786-0, 25.2 µM (inactive); in the test on K562 it was 3.07 µM (inactive); in the test on HL-60, 14 µM (inactive). In addition, in the test on Malme-3M, the GI50 was > 100 µM (inactive).

On to `N#CC1=C(N2CCCC2)NC(=O)CC1=O`, for which the GI50 with HCT-116 is > 100 µM (inactive); in the test with HCT-15 it was over 100 µM; with HOP-92 it was > 100 µM (inactive); with RPMI-8226 it was > 100 µM (inactive); in the test with UACC-62 it was > 100 µM (inactive); in the test on MDA-N it was > 100 µM (inactive). The GI50 in the test with SK-MEL-2, with OVCAR-3, in the test with U-251, with HT-29, in the test with OVCAR-4 and in the test with 786-0 was > 100 µM (inactive) each time. Also, the GI50 in the test on K562, with MDA-MB-231, with HL-60, in the test with Hs-578T and in the test on Malme-3M was > 100 µM (inactive) in each case.

Consider `CCOC(=O)C(NC(=O)OC(C)(C)C)C(=O)OCC`, for which the GI50 with HCT-116 was > 100 µM (inactive); with HCT-15 it was over 100 µM; with MCF7 it was > 100 µM (inactive); with HOP-92, > 100 µM (inactive); in the test on RPMI-8226 it was > 100 µM (inactive); with UACC-62, > 100 µM (inactive). Further, the GI50 with SK-MEL-2, with U-251, with HT-29, in the test on OVCAR-4, with 786-0 and with K562 was > 100 µM (inactive) throughout. In the test on Hs-578T, the GI50 was > 100 µM (inactive).

Source of the values: ChEMBL document CHEMBL1201862, “PubChem BioAssay data set” (2004).
